Source: the supplement of paper PMC5579334

Key:
[1] = tested on: S1507-2; test: relative IC50 (inflection point of fitted dose-response curve, CellTiter-Glo viability, 72 h; top asymptote may be below 50% inhibition); higher = less potent
Method in brief: (§1)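 Viability was scored by CellTiter-Glo ATP luminescence, scaled from vehicle to positive-control wells, with duplicates averaged where present. The cells, MPNST lines and primary human Schwann cells at 750–1000 per well, sat 72 h at 37 °C, 5% CO2, in 384-well plates preprinted with each compound at five concentrations in 10-fold steps. Four-parameter logistic fits were run on the data. These fits give drug sensitivity score and relative IC50 censored at the top concentration, and percent inhibition is reported at the top concentration.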

[2] = tested on: S462; test: as above
Method in brief: as §1

[3] = tested on: HSC2; test: as above
Method in brief: as §1

[4] = tested on: YST-1; test: as above
Method in brief: as §1

[5] = tested on: HS-Sch-2; test: as above
Method in brief: as §1

[6] = tested on: HSC1; test: as above
Method in brief: as §1

[7] = tested on: HS-PSS; test: as above
Method in brief: as §1

[8] = tested on: ST8814; test: as above
Method in brief: as §1

[9] = tested on: S1507-2; test: relative IC50 (inflection point of fitted dose-response curve, CellTox-Green cytotoxicity, 72 h; top asymptote may be below 50%); higher = less potent
Method in brief: (§2)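 MPNST cell lines and primary human Schwann cells were incubated 72 h at 37 °C in 384-well plates holding five 10-fold compound dilutions. CellTox-Green was added before seeding at a final 1:1000 dilution and reported fluorescence from DNA released by disrupted cells. Signals were scaled to vehicle and positive-control wells, and cultures failing plate quality control were dropped. Drug sensitivity score and relative IC50 come from four-parameter logistic fits, with IC50 censored at the top concentration.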

[10] = tested on: HSC2; test: as above
Method in brief: as §2

[11] = tested on: STS26T; test: as above
Method in brief: as §2

[12] = tested on: HSC1; test: as above
Method in brief: as §2

[13] = tested on: HS-PSS; test: as above
Method in brief: as §2

[14] = tested on: ST8814; test: as above
Method in brief: as §2

[15] = tested on: STS26T; test: relative IC50 (inflection point of fitted dose-response curve, CellTiter-Glo viability, 72 h; top asymptote may be below 50% inhibition); higher = less potent
Method in brief: as §1

SMILES	relative IC50 [1] [nM]	relative IC50 [2] [nM]	relative IC50 [3] [nM]	relative IC50 [4] [nM]	relative IC50 [5] [nM]	relative IC50 [6] [nM]	relative IC50 [7] [nM]	relative IC50 [8] [nM]	relative IC50 [9] [nM]	relative IC50 [10] [nM]	relative IC50 [11] [nM]	relative IC50 [12] [nM]	relative IC50 [13] [nM]	relative IC50 [14] [nM]	relative IC50 [15] [nM]
CCCCCOC(=O)Nc1nc(=O)n([C@@H]2O[C@H](C)[C@@H](O)[C@H]2O)cc1F [Capecitabine]	> 10000	> 10000	> 10000	> 10000	> 10000	> 10000	> 10000	> 10000	> 10000	> 10000	> 10000	> 10000	> 10000	> 10000	
Cc1cn(-c2cc(NC(=O)c3ccc(C)c(Nc4nccc(-c5cccnc5)n4)c3)cc(C(F)(F)F)c2)cn1 [Nilotinib]	> 10000	> 10000	> 10000			> 10000		> 10000	> 10000		> 10000	> 10000	> 10000	> 10000	> 10000
Cn1cncc1[C@@](N)(c1ccc(Cl)cc1)c1ccc2c(c1)c(-c1cccc(Cl)c1)cc(=O)n2C [Tipifarnib]	97.5	510	585	175	1510	1350	683	366	> 10000	> 10000	342		> 10000		351
CN1CCN(CCOc2cc(OC3CCOCC3)c3c(Nc4c(Cl)ccc5c4OCO5)ncnc3c2)CC1 [Saracatinib]	1530	818	1530		2810	452	1570	1320	99.5	8110		> 10000		1550	1110
Cc1sc2c(c1C)C(c1ccc(Cl)cc1)=N[C@@H](CC(=O)OC(C)(C)C)c1nnc(C)n1-2 [(+)JQ1]	161	386	462			420		208	546	> 10000	> 10000	> 10000		404	226
CS(=O)(=O)CCNCc1ccc(-c2ccc3ncnc(Nc4ccc(OCc5cccc(F)c5)c(Cl)c4)c3c2)o1 [Lapatinib]	> 1000	> 1000	> 1000		> 1000	> 1000	> 1000	> 1000	> 1000	> 1000	> 1000	> 1000	> 1000	> 1000	
COc1cc(OC2CCN(C)CC2)ccc1Nc1ncc2c(n1)n(C1CCCC1)c(=O)n2C [AZ 3146]	2690	964	3340	1480	1670	3380	1850	2580	3510		1950	> 10000	3140	2960	1250
COc1cc2c(cc1-c1c(C)noc1C)ncc1[nH]c(=O)n([C@H](C)c3ccccn3)c12 [I-BET151]	1250	1310	1150	1070	1060	992	1710	918	1400	> 10000	> 10000		> 10000	1240	1130
CC(=O)Nc1cccc(-n2c(=O)n(C3CC3)c(=O)c3c(Nc4ccc(I)cc4F)n(C)c(=O)c(C)c32)c1 [Trametinib]	15.2	9.9	18.5	> 250	48.6	10.6	28.1	16	45.8			> 250	> 250	46.3	7.59
C=CCc1cccc(/C=N/NC(=O)CN2CCN(Cc3ccccc3)CC2)c1O [PAC-1]	3660	3490	1370	2430	1130	1890	2320	2920	> 10000	> 10000	> 10000	> 10000	2020		2530
O=C(NC[C@H](O)CO)c1ccncc1Nc1ccc(I)cc1F [Pimasertib]	476	507	846	3800	962	730	2390	971	2160	> 10000			> 10000	2060	241
CCN(CC)CCCC(C)Nc1c2ccc(Cl)cc2nc2ccc(OC)cc12 (stereo not given) [Mepacrine aq]	1070	918	1230			1230		929	2200	1170	2370	956		2910	1320
CCNC(=O)c1noc(-c2cc(C(C)C)c(O)cc2O)c1-c1ccc(CN2CCOCC2)cc1 [NVP-AUY922]	18.3	21.7	12			14.3		22.9	13.9	20.4	42.1	23.2		67.9	22.9
CCN(CCO)CCCOc1ccc2c(Nc3cc(CC(=O)Nc4cccc(F)c4)[nH]n3)ncnc2c1 [AZD1152-HQPA]	107	5.43	35.2	5.7	> 1000	22.3		152	> 1000		161	> 1000	> 1000	206	85.6
CS(=O)(=O)c1ccc(C(=O)Nc2ccc(Cl)c(-c3ccccn3)c2)c(Cl)c1 [Vismodegib]	> 10000	> 10000	> 10000			> 10000		> 10000	> 10000	> 10000	> 10000		> 10000	> 10000	> 10000
COc1cc(O)c2c(c1)/C=C/C[C@H](O)[C@H](O)C(=O)/C=C\C[C@H](C)OC2=O [(5Z)-7-Oxozeaenol]	2450	1660	1320	2020	2790	1690	3820	1330	3520	3900	3070		> 10000		1360
Nc1ccccc1NC(=O)c1ccc(CNC(=O)OCc2cccnc2)cc1 [Entinostat]	2680	1500	2560	1240	3410	2340	3730	3700	3240	> 10000		> 10000		3640	2740
Oc1ncc(N(CCCl)CCCl)c(O)n1 [Uracil mustard]	> 10000	> 10000	> 10000			> 10000			> 10000	> 10000	> 10000	> 10000		> 10000	> 10000
CN(C)C[C@@H]1CCn2cc(c3ccccc32)C2=C(C(=O)NC2=O)c2cn(c3ccccc23)CCO1 [Ruboxistaurin]	2170	2080	1970	1360	3420	3290	2890	1200	2960	1880	2420	2060	3670		2980
O=C(Nc1ccc2[nH]nc(-c3ccncc3)c2c1)[C@@H]1CCN(CC(=O)N2CCN(c3ccc(-c4ncccn4)cc3)CC2)C1	568	137	159	2270	773	263	677	234	1950			> 10000	> 10000	675	822
Cc1cc2c(C(C)C)c(O)c(O)c(C=O)c2c(O)c1-c1c(C)cc2c(C(C)C)c(O)c(O)c(C=O)c2c1O [AT 101]	16300	3790	1740	5300	5350	3720	15300	7150	> 100000	> 100000	> 100000	10700	30300		8980
c1ccc2c(CCNc3ccc(Nc4ccncc4)cc3)c[nH]c2c1 [Serdemetan]	1620	1150	1350	876	3740	1370	2710	887	2810	> 10000	3310		3240	865	2440
C[C@H]1C=C2C(=O)O[C@H]3CC[C@@H](C1)[C@@]23O [Galiellalactone]	9350	8040	9860	9960	4620	5260	6450	10100	15700	> 50000	14600		> 25000	> 50000	7720
COc1cc2c(cc1O)CC[C@@H]1[C@@H]2CC[C@]2(C)[C@@H](O)CC[C@@H]12 [2-methoxyestradiol]	1860	747	1230	1650	841	1170	3060	2580	1660	1500	1020		> 10000	3130	922
Cc1ccc(NC(=O)c2ccc(CN3CCN(C)CC3)cc2)cc1Nc1nc(-c2cccnc2)cs1 [Masitinib]	2060	3300	2600	2330	3270	3400	1830	3230	3510		3340	3820	3850	3220	3370
CC[C@H](CC#N)OC(=O)N[C@@H](C)c1cccc(NC(=O)Nc2ccc(-c3cnco3)c(OC)c2)c1 [AVN944]	500	320	93.4	317	640	108	309	614	> 10000	> 10000		> 10000	> 10000	886	398
Cc1c(Cn2c(C)nc3c(C(=O)O)cc(N4CCOCC4)cc32)cccc1C(F)(F)F	931	> 10000	> 10000	> 10000	> 10000	> 10000			> 10000	> 10000	> 10000	> 10000	> 10000	> 10000	
COc1ccc(-c2ccc3c(N4CCOC[C@@H]4C)nc(N4CCOC[C@@H]4C)nc3n2)cc1CO [AZD8055]	51.1	24.8	28	20.5	83.3	29.9	91.7	138	> 10000	> 10000	> 10000	> 10000			69.5
